Among the data in US20240217970A1, “PHTHALIMIDO CEREBLON COMPLEX BINDERS AND TRANSCRIPTION FACTOR DEGRADERS AND METHODS OF USE” (DANA-FARBER CANCER INSTITUTE, INC., priority 2021, published 2024) are IC50, inhibition and DC50 values, retold here.

Broadly, the IC50 is the midpoint of a concentration-inhibition curve. Low readings indicate inhibition by little substance, high ones a need for much substance. A word on the inhibition: it is how much of the control response was suppressed. Low readings indicate a weak effect, high ones a strong effect. As usually defined, the DC50 is the concentration at which degradation of the target reaches its halfway point.

In one assay the target is T1, CRBN (NanoLuc-CRBN) (Homo sapiens, UniProt Q96SW2).
T1 construct: expressed in transfected cells; host or cells: HEK293T (lentiviral transduction, puromycin selection)
Put plainly: Cellular CRBN NanoBRET engagement assay. The note with it: HEK293T cells stably expressing NanoLuc-CRBN; tracer 250 nM; two hours incubation. The assay is classed as cell-based. As to the method:
HEK293T cells were transduced with lentivirus and put under puromycin selection (5 μg/mL) for two weeks to produce a cell line stably expressing CRBN with N-terminally fused NanoLuc luciferase (NanoLuc®-CRBN). After antibiotic selection, cells were cultured in DMEM (Gibco, Life Technologies™) supplemented with 10% FBS and 1 μg/mL puromycin to maintain stable NanoLuc®-CRBN expression.
To run the assay, cells were cultured to confluency in 10 cm^2 tissue culture treated plates (Corning®, 430165), washed with PBS and trypsinized at room temperature to detach from the cell culture plate. After 3-4 minutes, the trypsin was quenched with 5× volume DMEM media (Gibco, Life Technologies™) with 10% FBS and cells are collected by centrifugation (1000 rpm, 5 min). The supernatant was removed by vacuum aspiration and the pellet was then resuspended in Opti-MEM™ without phenol red. The density of this cell suspension was determined by diluting the cells 1:1 with trypan blue, then counting using a Countess™ II (Thermo Fischer Scientific) and then diluted to the required volume at 2×10^5 viable cells/mL in Opti-MEM™ I (Gibco, Life Technologies™). CRBN engagement tracer (stock at 10 μM in 31.25% PEG-400, 12.5 mM HEPES, pH 7.5, filtered using a 0.22 μm nitrocellulose membrane; final concentration in cell suspension for assay at 250 nM) was added to the suspension. Cells were then plated in a white/opaque cell culture treated 384-well plate (Corning®, 3570) at volume of 50 μL/well. After plating, the assay plate was centrifuged (500×g, 5 min) and covered in aluminum foil. Compounds for testing were added to the plate using D300e Digital Dispenser (HP) in duplicate 12-pt titrations from a 10 mM stock in DMSO, with DMSO normalized to 1% total volume. The plate was then placed in an incubator at 37° C., 5% CO2 for two hours. After incubation, the plate was removed and set on the bench to come to room temperature (˜10-15 min). The NanoLuc® substrate (500× solution)* and extracellular inhibitor (1500× solution)* were diluted in Opti-MEM™ I (Gibco, Life Technologies™) to prepare a 3× solution. This was then added to each well (25 μL/well). The plate was read on a Pherastar® FSX microplate reader with simultaneous dual emission capabilities to read 384-well plates at 450 and 520 nm. The NanoBRET™ ratio was calculated by dividing the signal at 520 nm by the signal at 450 nm for each sample. Duplicate points were averaged and plotted against [compound, M] to generate an ECso curve.
In general terms: Bioluminescence resonance energy transfer reports proximity on the nanometre scale.

The next assay deals with T2, IKZF2 (Helios) (Homo sapiens, UniProt Q96SW2+Q9UKS7).
T2 construct: endogenous in cells; host or cells: MOLT4 (CRISPR/Cas knock-in of HiBiT at the endogenous IKZF2 locus)
As to the kind of experiment: HiBiT-IKZF2 degradation assay in MOLT4 cells. The assay is classed as cell-based. The note with it: for inhibition at 10 µM: MOLT-4, 10 μM; for DC50: concentration at which 50% of HiBiT-Helios degradation was achieved, read-out: Cellular Degradation - IKZF2 DC50. As to the method: The HiBiT protein tagging system was applied to MOLT4 cells via a CRISPR/Cas-mediated insertion of the HiBiT peptide tag (Promega™) to the N-terminus of the IKZF2 gene locus (Neon™ Transfection System). The resulting HiBiT-Helios stable cell line was treated with inventive compounds 1-10 in triplicates following a 13-point concentration scheme ranging from 10 μM to 0.00026 μM. At the indicated timepoints, the Nano-Glo® HiBiT Lytic Detection system (Promega™) was utilized for detecting bioluminescence of the HiBiT tag in treated cells: the abundance of the tag is proportionate to the level of luminescence. Following normalization to DMSO, dose-response curves were plotted (GraphPad Prism) to determine the concentration points at which 50% of HiBiT-Helios degradation was achieved by each compound. The extent of degradation (range of luminescence) from the highest to lowest concentration points was calculated to determine Dmax.

T2 sequence (Q9UKS7 whole entry): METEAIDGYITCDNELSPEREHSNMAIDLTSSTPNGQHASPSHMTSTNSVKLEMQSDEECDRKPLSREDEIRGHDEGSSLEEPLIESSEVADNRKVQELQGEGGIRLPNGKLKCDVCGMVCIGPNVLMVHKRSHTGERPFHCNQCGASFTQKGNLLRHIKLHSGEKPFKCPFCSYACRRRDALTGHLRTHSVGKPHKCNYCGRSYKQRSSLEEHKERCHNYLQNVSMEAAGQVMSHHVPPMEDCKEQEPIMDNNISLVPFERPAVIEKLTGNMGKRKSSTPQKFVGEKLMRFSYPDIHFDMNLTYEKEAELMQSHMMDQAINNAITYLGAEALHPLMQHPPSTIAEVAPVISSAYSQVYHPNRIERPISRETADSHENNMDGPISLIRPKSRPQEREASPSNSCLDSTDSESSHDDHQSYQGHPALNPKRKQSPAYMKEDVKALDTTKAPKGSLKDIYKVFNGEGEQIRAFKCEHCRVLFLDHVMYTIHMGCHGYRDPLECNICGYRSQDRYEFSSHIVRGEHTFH
T2 sequence (Q96SW2 whole entry): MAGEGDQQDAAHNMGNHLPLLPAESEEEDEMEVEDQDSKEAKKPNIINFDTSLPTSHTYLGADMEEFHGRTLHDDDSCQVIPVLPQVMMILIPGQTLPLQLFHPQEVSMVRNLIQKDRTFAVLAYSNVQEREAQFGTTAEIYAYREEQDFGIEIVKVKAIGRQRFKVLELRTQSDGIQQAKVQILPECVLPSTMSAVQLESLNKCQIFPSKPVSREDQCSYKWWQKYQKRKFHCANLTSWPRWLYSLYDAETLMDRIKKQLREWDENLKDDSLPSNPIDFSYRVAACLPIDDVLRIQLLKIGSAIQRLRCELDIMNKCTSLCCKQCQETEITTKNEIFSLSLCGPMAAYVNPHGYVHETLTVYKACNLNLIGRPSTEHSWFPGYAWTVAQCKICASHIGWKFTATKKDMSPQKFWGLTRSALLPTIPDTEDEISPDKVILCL
T2 sequence (Q16531 whole entry partner): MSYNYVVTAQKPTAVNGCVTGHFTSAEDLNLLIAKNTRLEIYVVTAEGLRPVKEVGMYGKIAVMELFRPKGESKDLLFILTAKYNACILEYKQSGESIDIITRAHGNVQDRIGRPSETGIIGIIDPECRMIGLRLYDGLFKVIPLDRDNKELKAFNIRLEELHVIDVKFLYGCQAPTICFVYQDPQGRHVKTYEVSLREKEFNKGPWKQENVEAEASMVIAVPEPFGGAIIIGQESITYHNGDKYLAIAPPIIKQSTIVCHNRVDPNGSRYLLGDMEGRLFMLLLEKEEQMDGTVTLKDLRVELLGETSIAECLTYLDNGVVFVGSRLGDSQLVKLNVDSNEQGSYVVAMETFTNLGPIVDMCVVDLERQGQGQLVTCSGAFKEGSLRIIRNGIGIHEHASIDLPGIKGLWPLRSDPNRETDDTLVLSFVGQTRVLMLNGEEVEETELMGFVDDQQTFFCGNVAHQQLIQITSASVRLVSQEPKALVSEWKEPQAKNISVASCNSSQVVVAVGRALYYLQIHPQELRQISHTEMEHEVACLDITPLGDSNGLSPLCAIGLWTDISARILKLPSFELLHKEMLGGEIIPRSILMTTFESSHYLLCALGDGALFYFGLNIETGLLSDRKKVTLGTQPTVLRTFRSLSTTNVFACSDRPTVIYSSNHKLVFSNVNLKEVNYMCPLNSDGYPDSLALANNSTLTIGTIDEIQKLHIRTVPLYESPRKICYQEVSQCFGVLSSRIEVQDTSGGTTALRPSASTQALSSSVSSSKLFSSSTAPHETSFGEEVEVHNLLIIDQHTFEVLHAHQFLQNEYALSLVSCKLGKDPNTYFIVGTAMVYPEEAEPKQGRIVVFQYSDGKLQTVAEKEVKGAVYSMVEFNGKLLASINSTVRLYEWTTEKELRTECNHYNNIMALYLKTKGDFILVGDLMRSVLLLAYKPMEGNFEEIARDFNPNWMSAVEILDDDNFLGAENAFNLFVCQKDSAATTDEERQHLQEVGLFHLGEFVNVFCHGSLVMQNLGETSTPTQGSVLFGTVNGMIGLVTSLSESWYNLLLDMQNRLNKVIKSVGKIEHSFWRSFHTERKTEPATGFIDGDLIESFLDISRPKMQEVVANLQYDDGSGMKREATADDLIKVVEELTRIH
T1 sequence (Q96SW2 whole entry, species assumed): as the sequence (Q96SW2 whole entry) above

In turn, `O=C1CCC(N2C(=O)c3ccc(C4(O)CCN(Cc5ccc6cc(-c7ccccc7)nn6c5)CC4)cc3C2=O)C(=O)N1` (stereo not shown) [Compound 1, 2-(2,6-dioxo-3-piperidyl)-5-[4-hydroxy-1-[(2-phenylpyrazolo[1,5-a]pyridin-6-yl)methyl]-4-piperidyl]isoindoline-1,3-dione] registered an IC50 on CRBN (NanoLuc-CRBN) of 38 nM. On IKZF2 (Helios), at 10 µM the inhibition was 80% and the DC50 turned out to be 4.9 nM.

`COc1ccc(Oc2cccc(CN3CCC(O)(c4ccc5c(c4)C(=O)N(C4CCC(=O)NC4=O)C5=O)CC3)c2)cc1` (stereo not shown) [Compound 2] displayed an IC50 at CRBN (NanoLuc-CRBN) of 41 nM. Further, on IKZF2 (Helios), the inhibition at 10 µM came out at 80% and the DC50 is 5.1 nM.

With `O=C1CCC(N2C(=O)c3ccc(C4(O)CCN(Cc5cccc(Oc6ccc(Cl)cc6)c5)CC4)cc3C2=O)C(=O)N1` (stereo not shown) [Compound 3], on CRBN (NanoLuc-CRBN), half-maximal inhibition (IC50) required 54 nM. In addition, at IKZF2 (Helios), testing at 10 µM gave an inhibition of 79% and the DC50 came out at 8.8 nM.

For the compound `O=C1CCC(N2C(=O)c3ccc(C4(O)CCN(Cc5ccc(F)c(Oc6ccccc6)c5)CC4)cc3C2=O)C(=O)N1` (stereo not shown) [Compound 4], the half-maximal inhibitory concentration (IC50) against CRBN (NanoLuc-CRBN) worked out at 88 nM. Also, on IKZF2 (Helios), the inhibition at 10 µM is 73% and the half-maximal degradation concentration (DC50) stood at 23 nM.

As for `N#Cc1ccc(Oc2cccc(CN3CCC(O)(c4ccc5c(c4)C(=O)N(C4CCC(=O)NC4=O)C5=O)CC3)c2)cc1` (stereo not shown) [Compound 5], half-maximal inhibition against CRBN (NanoLuc-CRBN) (IC50) was put at 24 nM. Moreover, on IKZF2 (Helios), the inhibition at 10 µM worked out at 77% and the 50% degradation concentration (DC50) was 4.3 nM.

As to `O=C1CCC(N2C(=O)c3ccc(C4(O)CCN(Cc5cccc(Oc6ccc(F)cc6)c5)CC4)cc3C2=O)C(=O)N1` (stereo not shown) [Compound 6], the IC50 against CRBN (NanoLuc-CRBN) was less than 2.6 nM. In addition, on IKZF2 (Helios), the inhibition at 10 µM was 77% and the DC50 amounted to 7.3 nM.

In the case of `O=C1CCC(N2C(=O)c3ccc(C4(O)CCN(CC5CCOCC5)CC4)cc3C2=O)C(=O)N1` (stereo not shown) [Compound 7], the midpoint of inhibition against CRBN (NanoLuc-CRBN), the IC50, lay at 56 nM. Moreover, on IKZF2 (Helios), the inhibition at 10 µM was 55% and the DC50 stood at 55 nM.

On to `O=C1CCC(N2C(=O)c3ccc(C4(O)CCN(Cc5cccc(Nc6ccccn6)n5)CC4)cc3C2=O)C(=O)N1` (stereo not shown) [Compound 8], for which 76 nM corresponded to half-maximal inhibition against CRBN (NanoLuc-CRBN) (IC50). Further, at IKZF2 (Helios), 10 µM produced 71% inhibition and the 50% degradation concentration (DC50) came to 24 nM.

Compound `O=C1CCC(N2C(=O)c3ccc(C4(O)CCN(Cc5cccc6ccccc56)CC4)cc3C2=O)C(=O)N1` (stereo not shown) [Compound 9] displayed an IC50 at CRBN (NanoLuc-CRBN) of 15 nM. On IKZF2 (Helios), at 10 µM the inhibition was 72% and the DC50 worked out at 14 nM.

Turning to `COc1cccc(CN2CCC(O)(c3ccc4c(c3)C(=O)N(C3CCC(=O)NC3=O)C4=O)CC2)c1` (stereo not shown) [Compound 10], on IKZF2 (Helios), testing at 10 µM gave an inhibition of 77% and the DC50 was 16 nM.

Turning to `O=C1CCC(N2C(=O)c3ccc(C4CCN(Cc5cccc(Nc6ccccn6)n5)CC4)cc3C2=O)C(=O)N1` (stereo not shown) [Compound 11], the IC50 against CRBN (NanoLuc-CRBN) amounted to 240 nM. The same compound displayed an inhibition at 10 µM against IKZF2 (Helios) of 45%.

On to `O=C1CCC(N2C(=O)c3ccc(C4(O)CCN(Cc5cc(F)cc(F)c5)CC4)cc3C2=O)C(=O)N1` (stereo not shown) [Compound 12], for which, at IKZF2 (Helios), at 10 µM the inhibition was 76% and the DC50 amounted to 61 nM.

As to `O=C1CCC(N2C(=O)c3ccc(C4(O)CCN(Cc5ccc(OC(F)F)cc5)CC4)cc3C2=O)C(=O)N1` (stereo not shown) [Compound 13], at IKZF2 (Helios), the inhibition at 10 µM was 74% and the DC50 came to 19 nM.

For the compound `O=C1CCC(N2C(=O)c3ccc(C4(O)CCN(Cc5ccccc5C(F)(F)F)CC4)cc3C2=O)C(=O)N1` (stereo not shown) [Compound 14], it took 62 nM to reach half-maximal inhibition against CRBN (NanoLuc-CRBN) (IC50). Moreover, at IKZF2 (Helios), 10 µM produced 57% inhibition and the DC50 was 20 nM.

In the case of `O=C1CCC(N2C(=O)c3ccc(C4(O)CCN(Cc5cccc(Oc6ccccc6)c5)CC4)cc3C2=O)C(=O)N1` (stereo not shown) [Compound 15], on CRBN (NanoLuc-CRBN), the IC50 was 31 nM. Moreover, on IKZF2 (Helios), the inhibition at 10 µM amounted to 76% and the DC50 amounted to 4.2 nM.

Turning to `O=C1CCC(N2C(=O)c3ccc(C4(O)CCN(Cc5ccc(C(F)(F)F)cc5)CC4)cc3C2=O)C(=O)N1` (stereo not shown) [Compound 16], at IKZF2 (Helios), the inhibition at 10 µM is 69% and the DC50 came out at 56 nM.

Regarding `O=C1CCC(N2C(=O)c3ccc(C4(O)CCN(Cc5ccc6ccccc6c5)CC4)cc3C2=O)C(=O)N1` (stereo not shown) [Compound 17, 2-(2,6-dioxo-3-piperidyl)-5-[4-hydroxy-1-(2-naphthylmethyl)-4-piperidyl]isoindoline-1,3-dione], the half-maximal inhibitory concentration (IC50) at CRBN (NanoLuc-CRBN) is 200 nM. In addition, on IKZF2 (Helios), testing at 10 µM gave an inhibition of 80% and the DC50 amounted to 13 nM.

At CRBN (NanoLuc-CRBN), `O=C1CCC(N2C(=O)c3ccc(C4(O)CCN(Cc5ccccc5)CC4)cc3C2=O)C(=O)N1` (stereo not shown) [Compound 18, 5-(1-benzyl-4-hydroxypiperidin-4-yl)-2-(2,6-dioxopiperidin-3-yl)isoindoline-1,3-dione] displayed an IC50 of 65 nM. Moreover, on IKZF2 (Helios), the inhibition at 10 µM stood at 70% and the DC50 stood at 22 nM.

Consider `O=C1CCC(N2C(=O)c3ccc(C4=CCN(Cc5ccccc5)CC4)cc3C2=O)C(=O)N1` (stereo not shown) [Compound 19, 5-(1-Benzyl-1,2,3,6-tetrahydropyridin-4-yl)-2-(2,6-dioxopiperidin-3-yl)isoindoline-1,3-dione], for which, on CRBN (NanoLuc-CRBN), half-maximal inhibition (IC50) was put at 1700 nM. On IKZF2 (Helios), this compound came in with an inhibition at 10 µM of 30%.

In the case of `O=C1CCC(N2C(=O)c3ccc(C4CCN(Cc5ccccc5)CC4)cc3C2=O)C(=O)N1` (stereo not shown) [Compound 20], testing at 10 µM against IKZF2 (Helios) gave an inhibition of 45%.
